Measurements as given in patent US20100113415A1, “EPHA4 RTK INHIBITORS FOR TREATMENT OF NEUROLOGICAL AND NEURODEGENERATIVE DISORDERS AND CANCER” (priority 2008, published 2010).

Target: T1, human form of EphA4 receptor over-expressed in CHO-K1 cells (Homo sapiens, UniProt P54764)
T1 construct: expressed in transfected cells; host or cells: CHO-K1
Assay: EphA4 cell-based assay (pGAS-Luc luciferase reporter in EphA4-transfected CHO-K1 cells)
Conditions: for IC50: inflexion point, luciferase, read-out: EphA4 Cell Assay IP; for EphA4 Cell Assay maximum percent inhibition: value in parentheses
Excerpt: A cell-based assay was used to measure the potency of the compounds on the human form of EphA4 receptor over-expressed in Chinese Hamster Ovary cell line, CHO-K1 cells (Merck Collection). The cell assay was based on a novel signaling pathway of EphA4, which involves activation of the tyrosine kinase Jak2 and the transcriptional activator Stat3 (39).
Reagents: The expression constructs of EphA4 were subcloned into the expression vector pCMV6-XL5 (Origene, MD, USA) (clone from Merck Kinase Library). The luciferase construct that was linked to the Stat1-responsive enhancer (pGAS-Luc) was bought from Stratagene (USA). The renilla construct that linked to an empty vector CMV was bought from Promega (USA).
Transfection and Luciferase Assay: CHO-K1 cells were plated in T-175 cell culture bottle in DMEM medium supplemented with 10% fetal bovine serum, 1 mM sodium pyruvate, 2 mM L-glutamine and 1.5 g/L sodium bicarbonate. When cell reached 70-80% confluence, transfections were performed in T-175 culture flasks, using Lipofectamine 2000™ transfection reagent (Invitrogen) according to the manufacturer's directions. For the luciferase assay CHO-K1 cells were co-transfected the next day with 50 μg of pGAS-Luc, 70 μg of EphA4, and 5 μg of empty vector pRL-CMV, which encoded the Renilla luciferase, and was included in the transfection mix for normalization. Six hours after transfection the cells were trypsinized and plated at 4.105 cells/ml into 96 well Black/Clear Poly-D-Lysine coated plates (Biocoat) that had been pre-spotted with compounds. Cells were lysed the next day using the Reporter Lysis Buffer (Promega), and the luciferase activity was measured using the Dual Luciferase Assay (Promega) following the manufacturer's directions. The Firefly and Renilla luminescences are read consecutively on a Top-Count (Perkin-Elmer). Results are expressed as a ratio of the two luminescence: Firefly Luciferase/Renilla Luciferase. Cell viability was assessed on parallel plates using the Cell Glo Assay (Promega) following the manufacturer's directions. Results are expressed as percent of cell death in comparison with vehicle-treated wells.
Compounds were titrated in duplicate at 10 points concentration starting at 100 μM with a 1.5 fold increment. Concentration-response curves were represented and the concentrations at the inflexion point (IP) were calculated. The maximum effect was given by the maximum percent inhibition calculated from the results of the control wells (containing only DMSO).

T1 sequence (P54764 20-986): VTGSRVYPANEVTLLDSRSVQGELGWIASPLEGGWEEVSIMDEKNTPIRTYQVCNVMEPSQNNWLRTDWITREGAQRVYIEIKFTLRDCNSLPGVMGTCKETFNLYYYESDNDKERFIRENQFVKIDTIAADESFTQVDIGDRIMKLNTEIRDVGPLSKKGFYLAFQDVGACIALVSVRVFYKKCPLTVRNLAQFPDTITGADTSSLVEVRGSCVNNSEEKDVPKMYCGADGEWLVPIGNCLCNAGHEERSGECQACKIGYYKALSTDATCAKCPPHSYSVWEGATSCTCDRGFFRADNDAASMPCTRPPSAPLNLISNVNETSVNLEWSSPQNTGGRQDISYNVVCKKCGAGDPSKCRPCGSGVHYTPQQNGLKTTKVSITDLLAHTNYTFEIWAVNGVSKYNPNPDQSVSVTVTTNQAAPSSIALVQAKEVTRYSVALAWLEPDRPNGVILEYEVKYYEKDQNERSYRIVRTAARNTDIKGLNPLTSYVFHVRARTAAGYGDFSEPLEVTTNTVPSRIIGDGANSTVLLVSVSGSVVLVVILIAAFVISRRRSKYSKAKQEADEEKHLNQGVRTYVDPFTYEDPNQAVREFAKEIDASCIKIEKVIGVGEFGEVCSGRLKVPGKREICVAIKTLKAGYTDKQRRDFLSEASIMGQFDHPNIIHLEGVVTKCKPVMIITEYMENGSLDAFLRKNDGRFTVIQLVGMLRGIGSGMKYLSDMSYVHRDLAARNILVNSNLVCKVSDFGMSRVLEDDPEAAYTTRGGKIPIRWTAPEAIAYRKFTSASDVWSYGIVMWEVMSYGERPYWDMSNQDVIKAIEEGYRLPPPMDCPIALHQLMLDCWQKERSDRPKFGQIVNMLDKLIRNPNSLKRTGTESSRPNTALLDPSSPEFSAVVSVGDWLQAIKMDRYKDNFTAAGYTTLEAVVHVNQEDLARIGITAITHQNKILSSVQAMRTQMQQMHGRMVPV

Row | SMILES | IC50 [µM] | EphA4 Cell Assay maximum percent inhibition [%]
1 | CC1CCc2c(-c3ccccc3Cl)nc3[nH]nc(N)c3c2C1 (stereo not shown) [Example 63] | 7.2 | 55
2 | Cc1ccccc1-c1nc2[nH]nc(N)c2c2c1CCC(C)(C)C2 [Example 67] | 2.3 | 46
